Laboratory results from paper PMC11219871, “Epigenetic-based differentiation therapy for Acute Myeloid Leukemia” (Nature Communications, 2024).
Where two headings read alike, the source gives them in different places.

What was measured:
Cytotoxicity (LC50) = type: cell-based; settings: human, PBMCs from healthy donors, 72-h exposure
[1] = system: H3Ac and H3K27me3 levels in HL-60, ML-2, MV4-11 and MOLM-13 cell lines; test: Western blot of histone marks; type: cell-based, human; settings: HL-60, 270 nM CM-444 or 300 nM CM-1758, 48 h
Description: Histone extraction was performed with a Histone extraction Kit (Abcam, Cambridge, UK) following the manufacturer’s instructions. The histone concentration in the extract was measured using the dye-binding assay of Bradford. A 10 µg amount of histone was separated on 15% sodium dodecyl sulfate-polyacrylamide gel electrophoresis and transferred to a nitrocellulose membrane. The membrane, after being blocked with Tropix I-block blocking reagent (Cat No AI300, Tropix) in PBS with 0.1% Tween 20 and 0.02 NaN3 was incubated with the primary antibody against Acetyl H3 (rabbit polyclonal antibody, Cat No 06-599, Millipore) diluted 1:50,000 o/n at 4 °C or against H3K27 me3 (mouse monoclonal antibody to histone H3 trimethyl K27, Cat No ab6002, Abcam) diluted 1:2000 in bovine serum albumin o/n at 4 °C and then with alkaline phosphatase-conjugated secondary antibodies. […] Total H3 was used as a loading control (diluted 1:50,000 o/n at 4 °C or for 1 h at room temperature) (Anti-Histone H3, CT, pan, rabbit polyclonal, Cat No 07-690, Millipore). Images have been cropped for presentation.

[2] = Plasma protein binding (equilibrium dialysis); type: in vitro ADME; settings: pH 7.4, Human
Description: This study was conducted by Equilibrium Dialysis at Wuxi (http://www.wuxi.com/). HT Dialysis plate (Model HTD 96 b, Cat# 1006) and the dialysis membrane (molecular weight cutoff of 12–14 kDa, Cat# 1101) were purchased from HT Dialysis LLC (Gales Ferry, CT). Human plasma (BioIVT, # […]2P2N) and CD-1 mouse plasma (Beijing Vital River Laboratory Animal Technology Co., Ltd.) were thawed prior to experiments under running cold tap water and centrifuged at 3320 × g for 5 min to remove any clots, and the pH was checked. Only plasma from pH 7.0 to 8.0 was used. The dialysis membrane was pretreated according to the manufacturer’s instructions. Test compounds and warfarin (control) were assayed at a final concentration of 2 μM. Aliquots of 50 μL loading plasma (matrix) containing test or control compound in triplicate were transferred to Sample Collection Plates, respectively. The samples were matched with opposite blank buffer to obtain a final volume of 100 μL with a volume ratio of plasma (matrix) to dialysis buffer (1:1, v-v) in each well immediately. […] Concentrations of test compounds in the starting solution (before dialysis), the plasma side of the membrane, and the buffer side of the membrane were quantified by LC-MS/MS using a peak area ratio of analyte/internal standard. The fraction of unbound, bound, and recovery were calculated. […]

[3] = Cryopreserved hepatocyte stability; type: in vitro ADME; settings: read-out: Liver Hepatocytes Estimation T1/2
Description: This study was conducted at Wuxi (http://www.wuxi.com/). […] Stock solutions of test compound (10 mM; 100% DMSO) and positive controls (7-ethoxycoumarin and 7-hydroxycoumarin; 30 mM; 100% DMSO) were diluted to 1 mM and 3 mM with DMSO and then diluted to 100 μM and 300 μM with acetonitrile (dosing solutions). Cryopreserved cells (from Human Donors, Bioreclamation IVT, Cat No. X008001 and from male C57 Mice, Bioreclamation IVT, Cat No. S00463) were thawed, isolated and suspended in Williams’ Medium E, then diluted with pre-warmed Williams’ Medium E to 0.5 × 10^6 cells/mL. Cell viability was tested by trypan blue exclusion after thawing. A volume of 2 μL of dosing solution and 198 μL of pre-warmed cell suspensions were added to a 96-well plate and incubated at 37 °C (5% CO2) with constant shaking at 600 rpm. Following different incubation times (0, 15, 30, 60 and 90 min), 20 μL of each sample was transferred to a well containing 80 μL of ice-cold stop solution (acetonitrile containing 200 ng/mL tolbutamide and 200 ng/mL labetalol as internal standards). Plates were vortexed at 27 g for 10 min and then centrifuged at 3220 × g for 20 min at 4 °C. An aliquot of supernatant (75 μL) was transferred from each well and mixed with 75 μL of ultra-pure water before submitting to LC-MS/MS analysis. Concentrations of test and control compounds were quantified by LC-MS/MS using a peak area ratio of analyte/internal standard, and the percent loss of the parent compound was calculated at each time point to determine the half-life (t1/2, min). Experiments were performed in duplicate.

[4] = cryopreserved hepatocytes, Human
[5] = male, C57, cryopreserved hepatocytes, Mouse

| SMILES | CC50 at 72 h (Cytotoxicity (LC50)) | H3Ac level (western blot) [1] | H3K27me3 level (western blot) [1] | fraction unbound at 4 h, 2 µM [2] | half-life at 1 µM [3, 4] | half-life at 1 µM [3, 5] |
| --- | --- | --- | --- | --- | --- | --- |
| COc1cc2nc(-c3ccc(C)o3)cc(NCC3CCN(c4ncc(C(=O)NO)cn4)CC3)c2cc1OC [CM-444, 2-[4-[[[6,7-dimethoxy-2-(5-methyl-2-furyl)-4-quinolyl]amino]methyl]-1-piperidyl]pyrimidine-5-carbohydroxamic acid] | 1240 nM | significant increase in H3Ac | no changes in H3K27me3 | 0.011 ± 0.001 | 71.1 min | 22.8 min |
| COc1cc2nc(-c3cc(C)oc3C)cc(NCC3CCN(c4ncc(C(=O)NO)cn4)CC3)c2cc1OC [CM-1758, 2-[4-[[[2-(2,5-dimethyl-3-furyl)-6,7-dimethoxy-4-quinolyl]amino]methyl] -1-piperidyl]pyrimidine-5-carbohydroxamic acid] | 2410 nM | significant increase in H3Ac | no changes in H3K27me3 | 0.01 | 92.1 min | 19.5 min |
